Test results as given in US20200306204A1, “TRANSDERMAL DELIVERY SYSTEM COMPRISING BUPRENORPHINE” (LTS Lohmann Therapie-Systeme AG, priority 2011, published 2020).

Assay: Solubility

## CO[C@]12CC[C@@]3(C[C@@H]1[C@](C)(O)C(C)(C)C)[C@H]1Cc4ccc(O)c5c4[C@@]3(CCN1CC1CC1)[C@H]2O5 [Buprenorphine, (5R,6R,7R,9R,13S,14S)-17-Cyclopropylmethyl-7-[(S)-3,3-dimethyl-2-hydroxybutan-2-yl]-6-methoxy-4,5-epoxy-6,14-ethanomorphinan-3-ol]
  Solubility in polysiloxanes: extremely low solubility
